Test results published in patent US9833497B2, “Human originated EGF domain proteins and use of the same” (CHENGDU SOURCEBIO LIMITED-LIABILITY COMPANY, priority 2013, dated 2017).

Columns and labels:
Format in all cases: cell-based
Enterobacter cloacae = experiment: MIC against Gram-negative bacteria: Enterobacter cloacae
Outline: (§1)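 Bacteria grown in LB at 37° C with shaking to McFarland 0.5, pelleted and resuspended in fresh LB, then seeded at 5×10^5 CFU/mL per well. Purified recombinant human EGF domain proteins were two-fold serially diluted in triplicate and plates shaken at 37° C, 175 rpm. MIC is the lowest protein concentration with no bacterial growth.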

Proteus mirabilis = experiment: MIC against Gram-negative bacteria: Proteus mirabilis
Outline: as §1

Serratia marcescens = experiment: MIC against Gram-negative bacteria: Serratia marcescens
Outline: as §1

Aeromonas hydrophila = experiment: MIC against Gram-negative bacteria: Aeromonas hydrophila
Outline: as §1

Moraxella catarrhalis = experiment: MIC against Gram-negative bacteria: Moraxella catarrhalis
Outline: as §1

Klebsiella pneumonia = experiment: MIC against Gram-negative bacteria: Klebsiella pneumonia
Outline: as §1

Proteus vulgaris = experiment: MIC against Gram-negative bacteria: Proteus vulgaris
Outline: as §1

Citrobacter diversus = experiment: MIC against Gram-negative bacteria: Citrobacter diversus
Outline: as §1

E. coli DH5α = experiment: Antibacterial activity: MIC and growth curve against E. coli DH5α in 96-well plate; details: minimal inhibitory concentration against E. coli DH5α; 96-well plate, 5×10^5 CFU/mL, 37° C., judged after 8 h
Outline: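 MIC taken as lowest protein level with no bacterial growth, tracked by A600 every 30 min during 37 °C, 175 rpm culture. Two-fold protein series 50-12.5 μg/mL final, triplicate wells, against 5×10^5 CFU/mL of LB-washed mid-log cells.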

E. coli BL21 = experiment: MIC against Gram-negative bacteria: E. coli BL21
Outline: as §1

Pseudomonas aeruginosa = experiment: MIC against Gram-negative bacteria: Pseudomonas aeruginosa
Outline: as §1

[1] = 96-well plate, 5×10^5 CFU/mL, 37° C., 10 h
[2] = E. cloacae, 10 h cultivation at 37° C.
[3] = P. mirabilis, 10 h cultivation at 37° C.
[4] = S. marcescens, 10 h cultivation at 37° C.
[5] = A. hydrophila, 10 h cultivation at 37° C.
[6] = M. catarrhalis, 10 h cultivation at 37° C.
[7] = K. pneumonia, 10 h cultivation at 37° C.
[8] = P. vulgaris, 10 h cultivation at 37° C.
[9] = C. diversus, 10 h cultivation at 37° C.
[10] = E. coli BL21, 10 h cultivation at 37° C.
[11] = P. aeruginosa, 10 h cultivation at 37° C.
[12] = Enterobacter cloacae, 5×10^5 CFU/mL, 10 h cultivation at 37° C.
[13] = Proteus mirabilis, 5×10^5 CFU/mL, 10 h cultivation at 37° C.
[14] = Serratia marcescens, 5×10^5 CFU/mL, 10 h cultivation at 37° C.
[15] = Aeromonas hydrophila, 5×10^5 CFU/mL, 10 h cultivation at 37° C.
[16] = Moraxella catarrhalis, 5×10^5 CFU/mL, 10 h cultivation at 37° C.
[17] = Klebsiella pneumonia, 5×10^5 CFU/mL, 10 h cultivation at 37° C.
[18] = Proteus vulgaris, 5×10^5 CFU/mL, 10 h cultivation at 37° C.
[19] = Citrobacter diversus, 5×10^5 CFU/mL, 10 h cultivation at 37° C.
[20] = E. coli BL21, 5×10^5 CFU/mL, 10 h cultivation at 37° C.
[21] = Pseudomonas aeruginosa, 5×10^5 CFU/mL, 10 h cultivation at 37° C.

PRT492 (CICYGHASSCPWDETTKKLQCQCEHNTCGESCNRCCPGYHQQPWRPGTVSSGNTCEA; listed as Homo sapiens)
MIC against E. cloacae (Enterobacter cloacae; [1]): 25 µg/mL
MIC against P. mirabilis (Proteus mirabilis; [1]): 50 µg/mL
MIC against S. marcescens (Serratia marcescens; [1]): 50 µg/mL
MIC against A. hydrophila (Aeromonas hydrophila; [1]): 50 µg/mL
MIC against M. catarrhalis (Moraxella catarrhalis; [1]): 12.5 µg/mL
MIC against K. pneumonia (Klebsiella pneumonia; [1]): 12.5 µg/mL
MIC against P. vulgaris (Proteus vulgaris; [1]): 12.5 µg/mL
MIC against C. diversus (Citrobacter diversus; [1]): 25 µg/mL
MIC (E. coli DH5α): 25 µg/mL
MIC against E. coli BL21 (E. coli BL21; [1]): 50 µg/mL
MIC against P. aeruginosa (Pseudomonas aeruginosa; [1]): 25 µg/mL

PRT947 (NIDDCARGPHCLNGGQCMDRIGGYSCRCLPGFAGERCE; listed as Homo sapiens)
MIC (Enterobacter cloacae; [2]): 12.5 µg/mL
MIC (Proteus mirabilis; [3]): 25 µg/mL
MIC (Serratia marcescens; [4]): 12.5 µg/mL
MIC (Aeromonas hydrophila; [5]): 50 µg/mL
MIC (Moraxella catarrhalis; [6]): 12.5 µg/mL
MIC (Klebsiella pneumonia; [7]): 50 µg/mL
MIC (Proteus vulgaris; [8]): 50 µg/mL
MIC (Citrobacter diversus; [9]): 25 µg/mL
MIC (E. coli DH5α): 12.5 µg/mL
MIC (E. coli BL21; [10]): 50 µg/mL
MIC (Pseudomonas aeruginosa; [11]): 12.5 µg/mL

PRT1422 (DVDDCILEPSPCPQRCVNTQGGFECHCYPNYDLVDGECV; listed as Homo sapiens)
MIC against E. cloacae (Enterobacter cloacae; [12]): 12.5 µg/mL
MIC against P. mirabilis (Proteus mirabilis; [13]): 12.5 µg/mL
MIC against S. marcescens (Serratia marcescens; [14]): 12.5 µg/mL
MIC against A. hydrophila (Aeromonas hydrophila; [15]): 50 µg/mL
MIC against M. catarrhalis (Moraxella catarrhalis; [16]): 50 µg/mL
MIC against K. pneumonia (Klebsiella pneumonia; [17]): 50 µg/mL
MIC against P. vulgaris (Proteus vulgaris; [18]): 50 µg/mL
MIC against C. diversus (Citrobacter diversus; [19]): 12.5 µg/mL
MIC (E. coli DH5α): 12.5 µg/mL
MIC against E. coli BL21 (E. coli BL21; [20]): 12.5 µg/mL
MIC against P. aeruginosa (Pseudomonas aeruginosa; [21]): 12.5 µg/mL

PRT891 (DVDECASTPCKNGAKCLDGPNTYTCVCTEGYTGTHCE; listed as Homo sapiens)
MIC (μg/mL) E. cloacae (Enterobacter cloacae; E. cloacae, 10 h cultivation at 37° C., 5×10^5 CFU/mL): 12.5 µg/mL
MIC (μg/mL) P. mirabilis (Proteus mirabilis; P. mirabilis, 10 h cultivation at 37° C., 5×10^5 CFU/mL): 12.5 µg/mL
MIC (μg/mL) S. marcescens (Serratia marcescens; S. marcescens, 10 h cultivation at 37° C., 5×10^5 CFU/mL): 50 µg/mL
MIC (μg/mL) A. hydrophila (Aeromonas hydrophila; A. hydrophila, 10 h cultivation at 37° C., 5×10^5 CFU/mL): 25 µg/mL
MIC (μg/mL) M. catarrhalis (Moraxella catarrhalis; M. catarrhalis, 10 h cultivation at 37° C., 5×10^5 CFU/mL): 25 µg/mL
MIC (μg/mL) K. pneumonia (Klebsiella pneumonia; K. pneumonia, 10 h cultivation at 37° C., 5×10^5 CFU/mL): 25 µg/mL
MIC (μg/mL) P. vulgaris (Proteus vulgaris; P. vulgaris, 10 h cultivation at 37° C., 5×10^5 CFU/mL): 25 µg/mL
MIC (μg/mL) C. diversus (Citrobacter diversus; C. diversus, 10 h cultivation at 37° C., 5×10^5 CFU/mL): 12.5 µg/mL
MIC (E. coli DH5α): 12.5 µg/mL
MIC (μg/mL) E. coli BL21 (E. coli BL21; E. coli BL21, 10 h cultivation at 37° C., 5×10^5 CFU/mL): 25 µg/mL
MIC (μg/mL) P. aeruginosa (Pseudomonas aeruginosa; P. aeruginosa, 10 h cultivation at 37° C., 5×10^5 CFU/mL): 12.5 µg/mL

PRT992 (LEDMCLSQPCHGDAQCSTNPLTGSTLCLCQPGYSGPTCH; listed as Homo sapiens)
MIC (Enterobacter cloacae; [2]): 25 µg/mL
MIC (Proteus mirabilis; [3]): 25 µg/mL
MIC (Serratia marcescens; [4]): 25 µg/mL
MIC (Aeromonas hydrophila; [5]): 25 µg/mL
MIC (Moraxella catarrhalis; [6]): 25 µg/mL
MIC (Klebsiella pneumonia; [7]): 12.5 µg/mL
MIC (Proteus vulgaris; [8]): 12.5 µg/mL
MIC (Citrobacter diversus; [9]): 25 µg/mL
MIC (E. coli DH5α): 12.5 µg/mL
MIC (E. coli BL21; [10]): 12.5 µg/mL
MIC (Pseudomonas aeruginosa; [11]): 12.5 µg/mL

PRT601 (CDCDIGGAYSNVCSPKNGQCECRPHVTGRSCSEPAPGYFFAPLNFYL; listed as Homo sapiens)
MIC E. cloacae (Enterobacter cloacae; [1]): 50 µg/mL
MIC P. mirabilis (Proteus mirabilis; [1]): 100 µg/mL
MIC S. marcescens (Serratia marcescens; [1]): 12.5 µg/mL
MIC A. hydrophila (Aeromonas hydrophila; [1]): 25 µg/mL
MIC M. catarrhalis (Moraxella catarrhalis; [1]): 50 µg/mL
MIC K. pneumonia (Klebsiella pneumonia; [1]): 25 µg/mL
MIC P. vulgaris (Proteus vulgaris; [1]): 50 µg/mL
MIC C. diversus (Citrobacter diversus; [1]): 12.5 µg/mL
MIC (E. coli DH5α): 50 µg/mL
MIC E. coli BL21 (E. coli BL21; [1]): 25 µg/mL
MIC P. aeruginosa (Pseudomonas aeruginosa; [1]): 12.5 µg/mL

PRT1386 (GSRACPRDCRGRGRCENGVCVCNAGYSGEDC; listed as Homo sapiens)
MIC against E. cloacae (Enterobacter cloacae; [12]): 25 µg/mL
MIC against P. mirabilis (Proteus mirabilis; [13]): 12.5 µg/mL
MIC against S. marcescens (Serratia marcescens; [14]): 12.5 µg/mL
MIC against A. hydrophila (Aeromonas hydrophila; [15]): 12.5 µg/mL
MIC against M. catarrhalis (Moraxella catarrhalis; [16]): 12.5 µg/mL
MIC against K. pneumonia (Klebsiella pneumonia; [17]): 12.5 µg/mL
MIC against P. vulgaris (Proteus vulgaris; [18]): 25 µg/mL
MIC against C. diversus (Citrobacter diversus; [19]): 12.5 µg/mL
MIC (E. coli DH5α): 25 µg/mL
MIC against E. coli BL21 (E. coli BL21; [20]): 12.5 µg/mL
MIC against P. aeruginosa (Pseudomonas aeruginosa; [21]): 25 µg/mL
